Test results from patent US7511133B2, “Adenosine A3 receptor agonists” (King Pharmaceuticals Research and Development, Inc., priority 2003, dated 2009).

Tests used:
human hA2B receptors = molecular target: T1, human hA2B receptors (Homo sapiens, UniProt P29275); assay: [^3H] DPCPX binding to human hA2B receptors expressed in HEK293 cells (antagonist radioligand); conditions: human A2B, HEK293 cells, antagonist radioligand; read-out: [^3H] DPCPX binding to human hA2B receptors expressed in HEK293 cells Ki
T1 construct: host or cells: HEK 293 cells
T1 sequence (P29275 1-332): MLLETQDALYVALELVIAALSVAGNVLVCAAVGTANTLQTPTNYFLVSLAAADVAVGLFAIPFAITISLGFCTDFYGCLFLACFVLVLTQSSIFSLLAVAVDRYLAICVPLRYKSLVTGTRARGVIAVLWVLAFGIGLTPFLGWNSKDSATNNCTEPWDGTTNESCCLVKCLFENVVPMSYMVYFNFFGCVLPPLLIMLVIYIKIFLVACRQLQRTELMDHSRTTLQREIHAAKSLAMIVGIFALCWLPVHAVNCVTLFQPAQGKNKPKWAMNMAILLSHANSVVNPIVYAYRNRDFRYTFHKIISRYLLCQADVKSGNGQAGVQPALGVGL
Procedure: (§1) Binding assay methodology for the human data with antagonist radioligands. […] Arch. Pharmacol. 357: 1-9, (1998). The cells were grown adherently and maintained in Dulbecco's Modified Eagles Medium with nutrient mixture F12 (DMEM/F12) without nucleosides, containing 10% fetal calf serum, penicillin (100 U/ml), streptomycin (100 μg/ml), L-glutamine (2 mM) and Geneticin (G418, 0.2 mg/ml) at 37° C. in 5% CO2/95% air. Cells were split 2 or 3 times weekly at a ratio between 1:5 and 1:20. For membrane preparation the culture medium was removed and the cells were washed with PBS and scraped off T75 flasks in ice-cold hypotonic buffer (5 mM Tris HCl, 2 mM EDTA, pH 7.4). The cell suspension was homogenized with Polytron and the homogenate was spun for 10 min at 1,000×g. The supernatant was then centrifuged for 30 min at 100,000×g. The membrane pellet was resuspended in 50 mM Tris HCl buffer pH 7.4 (for A3 adenosine receptors: 50 mM Tris HCl, 10 mM MgCl2, 1 mM EDTA) and incubated with 3 UI/ml of Adenosine deaminase for 30 min at 37° C. Then the suspension was frozen at −80° C. HEK 293 cells transfected with the human recombinant A2B adenosine receptor were obtained from Receptor Biology, Inc. (Beltsville, Md., USA).
Competition experiments of [^3H]-DPCPX to HEK-293 cells transfected with the human recombinant A^2B adenosine receptor were performed for 60 min at 25° C. in 0.1 ml of 50 mM Tris HCl buffer, 10 mM MgCl2, 1 mM EDTA, 0.1 mM benzamidine pH 7.4, 2 IU/ml adenosine deaminase containing 34 nM [^3H]-DPCPX, diluted membranes (20 μg of protein/assay) and at least 6-8 different concentrations of selected compounds.

[1] = molecular target: T2, human A2A adenosine receptors (Homo sapiens, UniProt P29274); assay: Displacement of [^3H]CGS21680 binding, human A2A adenosine receptors in CHO cells (agonist radioligand); conditions: human A2A, CHO cells, [^3H]CGS21680; read-out: Ki(A2A). Displacement of [^3H]CGS21680 binding to human A2A adenosine receptors exp. in CHO cells.
T2 construct: expressed in transfected cells; host or cells: CHO cells

[2] = molecular target: T3, human A3 adenosine receptors (Homo sapiens, UniProt P0DMS8); conditions: for A1/A3: ratio Ki(A1)/Ki(A3), agonist radioligands
T3 sequence (P0DMS8 1-318): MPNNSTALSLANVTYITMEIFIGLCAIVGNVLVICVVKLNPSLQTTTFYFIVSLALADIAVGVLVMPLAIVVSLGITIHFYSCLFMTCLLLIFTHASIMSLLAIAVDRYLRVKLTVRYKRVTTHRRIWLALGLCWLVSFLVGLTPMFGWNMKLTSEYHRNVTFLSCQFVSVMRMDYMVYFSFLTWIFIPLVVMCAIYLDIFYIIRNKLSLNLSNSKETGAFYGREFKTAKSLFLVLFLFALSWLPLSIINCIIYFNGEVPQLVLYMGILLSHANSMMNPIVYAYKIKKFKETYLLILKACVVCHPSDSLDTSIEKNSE

[3] = molecular target: T4, human A1 adenosine receptors (Homo sapiens, UniProt P30542); assay: Displacement of [^3H]CHA binding, human A1 adenosine receptors in CHO cells (agonist radioligand)
T4 sequence (P30542 1-326): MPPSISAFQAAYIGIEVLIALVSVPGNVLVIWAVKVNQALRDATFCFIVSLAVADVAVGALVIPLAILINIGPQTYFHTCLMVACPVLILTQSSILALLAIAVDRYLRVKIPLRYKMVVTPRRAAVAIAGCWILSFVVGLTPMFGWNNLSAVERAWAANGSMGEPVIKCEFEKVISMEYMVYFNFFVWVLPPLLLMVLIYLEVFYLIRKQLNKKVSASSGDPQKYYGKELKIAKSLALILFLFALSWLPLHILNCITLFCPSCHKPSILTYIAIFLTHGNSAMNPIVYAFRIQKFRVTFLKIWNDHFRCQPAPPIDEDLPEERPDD

human A1 receptors = molecular target: T5, human A1 receptors (Homo sapiens, UniProt P30542); assay: [^3H] DPCPX binding to human A1 receptors expressed in CHO cells (antagonist radioligand); conditions: human A1, CHO cells, antagonist radioligand; read-out: [^3H] DPCPX binding to human A1 receptors expressed in CHO cells Ki
T5 construct: expressed in transfected cells; host or cells: CHO cells
T5 sequence (P30542 1-326): T4 sequence (P30542 1-326)
Procedure: as §1, with “Pharmacol. 357: 1-9, (1998).” left out
Displacement experiments were performed for 120 min at 25° C. in 0.2 ml of 50 mM Tris HCl buffer pH 7.4 containing 1 nM [3H]-DPCPX, diluted membranes (50 μg of protein/assay) and at least 6-8 different concentrations of antagonists studied. Non-specific binding was determined in the presence of 10 μM of CHA and this was always ≦10% of the total binding.

human A2A receptors = molecular target: T6, human A2A receptors (Homo sapiens, UniProt P29274); assay: [^3H] SCH58261 binding to human A2A receptors expressed in CHO cells (antagonist radioligand); conditions: human A2A, CHO cells, antagonist radioligand; read-out: [^3H] SCH58261 binding to human A2A receptors expressed in CHO cells Ki
T6 construct: expressed in transfected cells; host or cells: CHO cells
Procedure: as §1
Binding of [^3H]-SCH 58261 to CHO cells transfected with the human recombinant A2A adenosine receptors (50 μg of protein/assay) was performed using 0.2 ml 50 mM Tris HCl buffer, 10 mM MgCl2 pH 7.4 and at least 6-8 different concentrations of antagonists studied for an incubation time of 30 min at 25° C.

human A3 receptors = molecular target: T7, human A3 receptors (Homo sapiens, UniProt P0DMS8); assay: [^3H] MRE3008F20 binding to human A3 receptors expressed in CHO cells (antagonist radioligand); conditions: human A3, CHO cells, antagonist radioligand; read-out: [^3H] MRE3008F20 binding to human A3 receptors expressed in CHO cells Ki
T7 construct: expressed in transfected cells; host or cells: CHO cells
T7 sequence (P0DMS8 1-318): T3 sequence (P0DMS8 1-318)
Procedure: as §1
Binding of [^3H]-MRE 3008F20 to CHO cells transfected with the human recombinant A3 adenosine receptors was performed according to Varani et al., 2000. Competition experiments were carried out in duplicate in a final volume of […] in test tubes containing 1 nM [^3H]-MRE 3008F20, 50 mM Tris HCl buffer, 10 mM MgCl2, 1 mM EDTA pH 7.4 and 100 μl of diluted membranes (50 μg of protein/assay) and at least 8-10 different concentrations of examined antagonists. Incubation time was 120 min at 4° C., according to the results of previous time-course experiments.

A3 receptor = conditions: cited from earlier work

T6 sequence (P29274 whole entry): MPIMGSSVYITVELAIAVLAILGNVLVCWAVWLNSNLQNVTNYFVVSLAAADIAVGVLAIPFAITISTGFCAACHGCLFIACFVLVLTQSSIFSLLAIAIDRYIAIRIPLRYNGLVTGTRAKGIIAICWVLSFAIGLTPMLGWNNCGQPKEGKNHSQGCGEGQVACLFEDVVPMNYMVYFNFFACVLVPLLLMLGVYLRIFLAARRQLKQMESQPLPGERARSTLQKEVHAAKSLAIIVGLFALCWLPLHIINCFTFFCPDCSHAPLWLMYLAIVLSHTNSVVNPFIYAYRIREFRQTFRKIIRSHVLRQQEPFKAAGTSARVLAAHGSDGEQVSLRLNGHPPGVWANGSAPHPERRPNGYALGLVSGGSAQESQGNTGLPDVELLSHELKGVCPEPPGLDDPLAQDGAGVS
T2 sequence (P29274 whole entry): as above

| Ki (human hA2B receptors) [nM] | Ki [1] [nM] | Ki [2] [nM] | A1/A3 [2] | Ki [3] [nM] | Ki (human A1 receptors) [nM] | melting point | Ki (human A2A receptors) [nM] | Ki (human A3 receptors) [nM] | Structure (SMILES) | selective for the A3 receptor versus either the A1 or A2A receptors (A3 receptor) [fold] |
| --- | --- | --- | --- | --- | --- | --- | --- | --- | --- | --- |
| > 1000 | > 1000 | 20 | 36.25 | 725 | > 1000 | 204 to 205 °C | > 1000 | 198 | CCNC(=O)[C@H]1O[C@@H](n2cnc3c(NC(=O)Nc4ccc(S(=O)(=O)N5CCOCC5)cc4)ncnc32)C(O)C1O (stereo partly drawn) [Compound 84, 1-Deoxy-1-[6-[[[[4-[(morpholine-1-yl)sulfonyl]phenyl]amino]carbonyl]amino]-9H-purin-9-yl]-N-ethyl-β-D-ribofuranuronamide] |  |
| > 1000 | > 1000 | 23 | 10.86 | 250 | > 1000 | 180 to 183 °C | > 1000 | 237 | CCNC(=O)[C@H]1O[C@@H](n2cnc3c(NC(=O)Nc4ccc(S(=O)(=O)NCC)cc4)ncnc32)[C@H](O)[C@@H]1O [Compound 85, 1-Deoxy-1-[6-[[[[4-[N-(ethyl)aminosulfonyl]phenyl]amino]-carbonyl]amino]-9H-purin-9-yl]-N-ethyl-β-D-ribofuranuronamide] |  |
| > 1000 | > 1000 | 80 | 5.56 | 445 | > 1000 | 199 °C | > 1000 | 886 | CCCCCNS(=O)(=O)c1ccc(NC(=O)Nc2ncnc3c2ncn3[C@@H]2O[C@H](C(=O)NCC)[C@@H](O)[C@H]2O)cc1 [Compound 87, 1-Deoxy-1-[6-[[[[4-[N-(pentyl)aminosulfonyl]phenyl]-amino]carbonyl]amino]-9H-purin-9-yl]-N-ethyl-β-D-ribofuranuronamide] |  |
| > 1000 | > 1000 | 25 | 11.6 | 290 | > 1000 | 180 °C (dec.) | > 1000 | 340 | CCNC(=O)[C@H]1O[C@@H](n2cnc3c(NC(=O)Nc4ccc(S(=O)(=O)NC5CC5)cc4)ncnc32)[C@H](O)[C@@H]1O [Compound 89, 1-Deoxy-1-[6-[[[[4-[N-(cyclopropyl)aminosulfonyl]phenyl]amino]-carbonyl]-amino]-9H-purin-9-yl]-N-ethyl-β-D-ribofuranuronamide] |  |
| > 1000 | > 1000 | 20 | 12.5 | 250 | > 1000 | 185 °C | > 1000 | 330 | CCNC(=O)[C@H]1O[C@@H](n2cnc3c(NC(=O)Nc4ccc(S(=O)(=O)NC(C)(C)C)cc4)ncnc32)[C@H](O)[C@@H]1O [Compound 92, 1-Deoxy-1-[6-[[[[4-[N-(1,1-dimethylethyl)aminosulfonyl]phenyl]amino]-carbonyl]amino]-9H-purin-9-yl]-N-ethyl-β-D-ribofuranuronamide] |  |
| > 1000 | > 1000 | 35 | 7.5 | 240 | > 1000 | 192 °C | > 1000 | 310 | CCNC(=O)[C@H]1O[C@@H](n2cnc3c(NC(=O)Nc4ccc(S(=O)(=O)NC56CC7CC(CC(C7)C5)C6)cc4)ncnc32)[C@H](O)[C@@H]1O [Compound 93, 1-Deoxy-1-[6-[[[[4-[N-(adamantan-1-yl)sulfonyl]phenyl]amino]carbonyl]-amino]-9H-purin-9-yl]-N-ethyl-β-D-ribofuranuronamide] |  |
|  |  |  |  |  |  |  |  |  | CNC(=O)[C@H]1O[C@@H](n2cnc3c(NCc4cccc(I)c4)ncnc32)[C@H](O)[C@@H]1O [IB-MECA, N^6-(3-iodo-benzyl)-adenosine-5′-N-methyl-uronamide] | 50 |
